Laboratory results published in patent publication US20080249042A1, “All-Trans-Retinol: All-Trans-13,14-Dihydroretinol Saturase and Methods of Its Use” (UNIVERSITY OF WASHINGTON, priority 2004, published 2008).
Where two headings read alike, the source gives them in different places.

Assays:
[1] = Liver retinoids of Lrat-/- mice 3 h after gavage with all-trans-ROL palmitate; format: in vivo, mouse; conditions: Lrat−/− (LRAT-deficient knockout), mouse, liver, oral, Lrat-/- mice, liver, 3 hr post-gavage, read-out: Level of liver retinoids 3 hr following gavage with ROL palmitate
Description: (§1) Metabolism of Retinoids in Vivo. All animal experiments employed procedures approved by the University of Washington and conformed to recommendations of the American Veterinary Medical Association Panel on Euthanasia and recommendations of the Association of Research for Vision and Ophthalmology. Animals were maintained on a 12-h light and 12-h dark cycle. All manipulations were done under dim red or infrared light (>560 nm). Most experiments used 6-12-week-old mice. Lrat−/− mice were genotyped as described previously. Batten, et al. J. Biol. Chem. 279:10422-10432, 2004. Animals were maintained on a control chow diet up to 1 h prior to oral gavage. The appropriate amount of all-trans-ROL palmitate, all-trans-DROL, or all-trans-RA was dissolved in vegetable oil and administered by oral gavage 3 h prior to analysis.
Analysis of Retinoids. Liver (1 g) from retinoid gavaged or naive mice was homogenized in 2 ml of 137 mM NaCl, 2.7 mM KCl, and 10 mM sodium phosphate (pH 7.4) for 30 s using a Polytron homogenizer. 10 μl of 5 M NaOH was added to 3 ml of the ethanolic extract, and the nonpolar retinoids were extracted using 5 ml of hexane. The extraction was repeated, and the organic phases were combined, dried under vacuum, resuspended in hexane, and examined by normal phase HPLC using a normal phase column (Beckman Ultrasphere Si 5μ, 4.6×250 mm). The elution condition was an isocratic solvent system of 10% ethyl acetate in hexane (v/v) for 25 min at a flow rate of 1.4 ml/min at 20° C. with detection at 325 and 290 nm for the detection of nonpolar retinoids and 13,14-dihydroretinoids, respectively. The aqueous phase was acidified with 40 μl of 12 N HCl, and polar retinoids were extracted with 5 ml of hexane. The extraction was repeated, and the organic phases of the polar retinoid extractions were combined, dried, resuspended in solvent composed of 80% CH3CN, 10 mM ammonium acetate, 1% acetic acid, and examined by reverse phase HPLC. Analysis of polar retinoids from tissues was done by reverse phase HPLC using a narrowbore, 120-Å, 5-μm, 2.1×250 mm, Denali C18 column (Grace-Vydac, Hesperia, Calif.). The solvent system was composed of buffer A, 80% methanol, 20% 36 mM ammonium acetate (pH 4.7 adjusted with acetic acid), and buffer B, 100% methanol. The HPLC elution conditions were […], 100% buffer A for 40 min, 100% buffer B for 10 min, and 10 min equilibration in buffer A. The elution profiles of RA and DRA were monitored using an online diode array detector set at 350 and 290 nm, respectively. The peaks were identified based on their UV-visible spectra and/or coelution with synthetic or commercially available standards. The measured area of absorbance was converted to picomoles based on a calibration of the HPLC columns using a known amount of all-trans-RA or all-trans-ROL (Sigma) and all-trans-DROL or all-trans-DRA (synthetic standards). The extraction efficiency was monitored by spiking a tissue sample with [^3H]RA (PerkinElmer Life Sciences) and monitoring the radioactivity recovered from the HPLC column. In the case of liver samples the extraction efficiency was 95% or better. Mass spectrometry analyses of synthesized retinoids and of natural retinoids purified by HPLC were performed using a Kratos profile HV-3 direct probe mass spectrometer.

[2] = Liver retinoids of Lrat-/- mice 3 h after gavage with all-trans-RA; format: in vivo, mouse; conditions: 3 h post-gavage
Description: as §1
(§2) Analysis of Retinoids. Liver (1 g) from retinoid gavaged or naive mice was homogenized in 2 ml of 137 mM NaCl, 2.7 mM KCl, and 10 mM sodium phosphate (pH 7.4) for 30 s using a Polytron homogenizer. 10 μl of 5 M NaOH was added to 3 ml of the ethanolic extract, and the nonpolar retinoids were extracted using 5 ml of hexane. The extraction was repeated, and the organic phases were combined, dried under vacuum, resuspended in hexane, and examined by normal phase HPLC using a normal phase column (Beckman Ultrasphere Si 5μ, 4.6×250 mm). […] The HPLC elution conditions were […], 100% buffer A for 40 min, 100% buffer B for 10 min, and 10 min equilibration in buffer A. The elution profiles of RA and DRA were monitored using an online diode array detector set at 350 and 290 nm, respectively. […] The measured area of absorbance was converted to picomoles based on a calibration of the HPLC columns using a known amount of all-trans-RA or all-trans-ROL (Sigma) and all-trans-DROL or all-trans-DRA (synthetic standards). The extraction efficiency was monitored by spiking a tissue sample with [^3H]RA (PerkinElmer Life Sciences) and monitoring the radioactivity recovered from the HPLC column. […]

[3] = Liver retinoids of Lrat-/- mice 3 h after gavage with all-trans-DROL; format: in vivo, mouse; conditions: 3 h post-gavage
Description: as §1, §2

tomato CRTISO = molecular target: T1, tomato CRTISO (Solanum lycopersicum, UniProt Q8S4R4); experiment: CRTISO activity in transfected HEKK cells; format: cell-based; conditions: CRTISO-expressing cells, overnight, in the dark
T1 construct: expressed in transfected cells
T1 sequence (Q8S4R4 with tags, fused parts or gaps): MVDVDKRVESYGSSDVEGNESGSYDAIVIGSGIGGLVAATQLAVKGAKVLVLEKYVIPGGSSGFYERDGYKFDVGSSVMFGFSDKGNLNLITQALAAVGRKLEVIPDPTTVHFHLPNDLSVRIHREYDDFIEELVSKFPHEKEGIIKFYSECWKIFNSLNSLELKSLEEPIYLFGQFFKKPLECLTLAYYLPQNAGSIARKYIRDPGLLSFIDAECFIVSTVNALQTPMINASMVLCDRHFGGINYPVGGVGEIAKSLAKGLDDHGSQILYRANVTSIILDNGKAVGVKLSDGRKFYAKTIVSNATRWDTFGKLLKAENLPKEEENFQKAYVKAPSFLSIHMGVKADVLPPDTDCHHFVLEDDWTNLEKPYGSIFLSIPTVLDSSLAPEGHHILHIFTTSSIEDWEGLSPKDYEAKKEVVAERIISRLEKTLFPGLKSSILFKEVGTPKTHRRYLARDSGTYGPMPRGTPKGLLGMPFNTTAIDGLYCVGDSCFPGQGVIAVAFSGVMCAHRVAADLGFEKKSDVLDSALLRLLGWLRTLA
Protocol: 7Z,9Z,9′Z,7′Z-Tetra-cis-tycopene purification and reverse-phase HPLC analysis of carotenoids. Carotenoid extraction and analysis were performed under dim red light. One gram from the fruit of a tangerine tomato was freeze-thawed three times and extracted with 2 ml PBS, 2 ml of ethanol, and 6 ml of hexane with the aid of a douncer. The organic phase was dried and resuspended in ethanol/tetrahydrofuran (9:1), and examined by reverse-phase HPLC System I (Prontosil, 200-3-C30, 3 μm, 4.6 mm×250 mm, Bischoff Chromatography, Leonberg, Germany) with a mobile phase of 75% tert-butyl methyl ether/25% methanol and a flow rate of 1 ml/min. More than 90% of the extract consisted of 7Z,9Z,9′Z,7′Z-tetra-cis-lycopene identified based on its published UV/VIS absorption spectrum in hexane with the following characteristics: shoulder at λ=417 nm, ε=90,000 M^−1cm^−1, λmax=437 nm, ε=105,000 M−1 cm^−1, shoulder at λ=461 nm ε=70,000 M^−1cm^−1. Bradford, Anal Biochem 72:248-254, 1976.
Enzyme assays of RetSat and CRTISO-catalyzed reactions. For enzyme assay, cells were seeded in six-well plates and expression of RetSat or CRTISO was induced with 1 μg/ml tetracycline 48 hr prior to analysis. […] For retinol and dihydroretinol analysis the methanol:water mixture was extracted with two volumes of hexane, then the organic phase was dried, resuspended in hexane, and analyzed by normal-phase HPLC. […]

mouse RetSat [4] = molecular target: T2, mouse RetSat (Mus musculus, UniProt Q64FW2); experiment: RetSat saturase activity in Tet-induced HEKK-RetSat cells; format: cell-based; conditions: 40 μM substrate, overnight incubation
T2 construct: expressed in transfected cells
T2 sequence (Q64FW2 26-609): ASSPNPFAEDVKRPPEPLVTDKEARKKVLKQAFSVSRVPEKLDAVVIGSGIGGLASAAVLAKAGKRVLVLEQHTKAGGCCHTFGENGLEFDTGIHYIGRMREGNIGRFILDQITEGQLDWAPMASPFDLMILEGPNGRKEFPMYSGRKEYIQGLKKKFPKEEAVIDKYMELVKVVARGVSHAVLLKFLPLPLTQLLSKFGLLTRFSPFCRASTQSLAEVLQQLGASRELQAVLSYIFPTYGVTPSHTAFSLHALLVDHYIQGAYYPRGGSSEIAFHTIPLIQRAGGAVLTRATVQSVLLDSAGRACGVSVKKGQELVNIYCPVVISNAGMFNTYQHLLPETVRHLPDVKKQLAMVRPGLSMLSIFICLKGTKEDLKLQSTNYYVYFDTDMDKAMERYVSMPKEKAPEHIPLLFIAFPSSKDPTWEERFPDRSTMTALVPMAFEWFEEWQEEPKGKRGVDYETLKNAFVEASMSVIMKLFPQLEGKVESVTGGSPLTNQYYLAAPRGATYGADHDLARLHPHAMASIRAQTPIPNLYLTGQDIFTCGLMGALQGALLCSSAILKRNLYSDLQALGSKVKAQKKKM
Protocol: Enzyme assays of RetSat and CRTISO-catalyzed reactions. For enzyme assay, cells were seeded in six-well plates and expression of RetSat or CRTISO was induced with 1 μg/ml tetracycline 48 hr prior to analysis. Substrate preparation and addition were conducted under dim red light. Retinoid substrates were purified by HPLC as described above and dissolved in N,N-dimethylformamide (DMF) to a final concentration of 4 mM. Organic extract of tangerine tomatoes was dried under a stream of argon and resuspended in DMF. The substrates were diluted in 300 μl complete media (tetracycline 1 μg/ml) to a 40 μM final concentration, overlayed on cells, and incubated overnight in the dark at 37° C. in 5% CO2 and 100% humidity. Media and cells were collected by scraping, mixed with an equal volume of methanol. For retinol and dihydroretinol analysis the methanol:water mixture was extracted with two volumes of hexane, then the organic phase was dried, resuspended in hexane, and analyzed by normal-phase HPLC. […] For carotenoid analysis the organic phase was dried and resuspended in ethanol/tetrahydrofuran (9:1) and examined by reverse-phase HPLC System I. For retinoic acid analysis the 1:1 methanol:water mixture was acidified with 0.1 volumes of 12N HCl and extracted with 1 volume of chlorofom, dried and resuspended in ethanol and examined by reverse-phase HPLC System II.

mouse RetSat [5] = molecular target: T2, mouse RetSat; conditions: earlier report, Moise et al. 2004; cited from earlier work

For `CC1=C(/C=C/C(C)=C/C=C/C(C)CO)C(C)(C)CCC1` (single isomer, unassigned) [C19-ROL, (3E,5E,7E)-2,6-dimethyl-8-(2,6,6-trimethylcyclohex-1-enyl)octa-3,5,7-trien-1-ol], the concentration at 3 h ([1]; 10^5 IU/kg body weight all-trans-ROL palmitate) was 200 ± 8 nM, the concentration at 3 h ([1]; 10^6 IU/kg body weight all-trans-ROL palmitate) was 1800 nM and the “Formation in liver after gavage with all-trans-RA” value [2] was “no evidence”. The “Level in liver after gavage with all-trans-DROL” value [3] was “low levels”.

With `CC(C)=CCC/C(C)=C/C=C/C(C)=C/C=C/C(C)=C/C=C/C=C(C)/C=C/C=C(C)/C=C/C=C(\C)CCC=C(C)C` [7Z,9Z,9′Z,7′Z-tetra-cis-lycopene] the “Conversion by CRTISO (substrate activity)” value (tomato CRTISO) was “converted” and the “Saturation by RetSat (substrate activity)” value (mouse RetSat [4]) was “no difference”.

For `CC1=C(/C=C/C(C)=C\C=C\C(C)=C\C(=O)O)C(C)(C)CCC1` [9-cis-RA, 9-cis-retinoic acid], the “Saturation by RetSat” value (mouse RetSat [5]) is given as “does not saturate”.

In the case of `CC(C=CC1=C(C)C(=O)CCC1(C)C)=CC=CC(C)CC(=O)O` (stereo not drawn) [all-trans-4-oxo-DRA], the “Formation in liver after gavage with all-trans-RA” value [2] is reported as “no evidence” and the “Level in liver after gavage with all-trans-DROL” value [3] is reported as “significant levels”.
